Assay results: US20190328832A1, “ANTIMICROBIAL COMBINATIONS” (HELPERBY THERAPEUTICS LIMITED, priority 2016, published 2019)

System: log phase NDM-1 Klebsiella Pneumoniae (BAA2473 strain)
Test: Time-kill method over 24 hours against log phase NDM-1 Klebsiella pneumoniae (CFU counts)
Assay type: cell-based
Conditions: perphenazine alone at 128 mg/L, FIG. 1
Description: The objective of this example was to test the synergistic effect of perphenazine and colistin (in the form of colistimethate sodium) in combination against log phase NDM-1 Klebsiella Pneumoniae by time-kill methods over a time period of 24 hours. As described hereinabove, time-kill methods are another accepted test for ascertaining the presence or absence of synergy, and involve comparing the dynamic effect of a drug combination with each drug alone when assessing the effect on bacterial log or stationary-growth over time.
Materials and Methods • 1. Bacterial strain used: BAA2473 strain of Klebsiella pneumoniae • 2. Growth of bacteria: Log phase growth of BAA2473 was carried out according to known methods in the art, e.g. SOP R-005-00 Log Phase Growth of Bacteria. • 3. Compound preparation: • i. Perphenazine was ordered from Sigma Aldrich® UK. • ii. Colistin was obtained as Colistimethate sodium (Forest Laboratories UK 1 million I. U. 80 mg). • 4. The overnight culture was diluted with nutrient broth (Oxoid) to […] and 280 μl and 290 ul of the culture was added to each combination well and drug respectively, to make the final concentration of 300 μl. • 5. Incubation of the compounds with the bacterial suspension was carried out for 24 hours. At 0, 2, 4, 7 and 24 hours, CFU counts were performed to measure the kill effects of the drug combination.

## OCCN1CCN(CCCN2c3ccccc3Sc3ccc(Cl)cc32)CC1 [perphenazine, 2-[4-[3-(2-chloro-10H-phenothiazin-10-yl)propyl]piperazin-1-yl]ethanol]
  effect against NDM-1 K. pneumoniae (time-kill, Log CFU/ml): little or no effect
